Reference: patent EP4741392A1, “1H-PYRAZOLO[4,3-C]PYRIDINE COMPOUND, AND COMPOSITION THEREOF AND USE THEREOF” (Shenzhen TargetRx Co., Ltd., priority 2023, dated 2025)
Like-named read-outs stand apart in the source and are kept apart here.

Columns and labels:
Assay type in all cases: cell-based
Ramos cells with BTK WT = test: Phosphor-BTK(Y223) assay, suspended cells; conditions: phosphorylated BTK Y223, Ramos cells with BTK WT
In short: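 Ramos BTK WT cells (2.5 k/well) were treated with compound dilutions for 2 h at 37 °C, then 5 mM Na3VO4 for 3 h. Lysates were read by HTRF p-BTK(Y223) cryptate/d2 antibodies overnight at RT (665/620 ratio). IC50 came from a four-parameter fit of % inhibition versus blank and positive-control wells.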

NIH/3T3 BTK WT cells = test: Phosphor-BTK(Y223) assay, adherent cells; conditions: read-out: NIH/3T3 BTK-WT pBTK
In short: (§1)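 NIH/3T3 cells expressing WT or C481S BTK were pretreated with compound for 0.5 h at 37 °C, then stimulated with 1 mM Na3VO4 (final) for 2 h. Lysates were assayed by HTRF for p-BTK Y223 using the 665/620 nm ratio. IC50 was obtained by nonlinear fit of % inhibition versus 0.5% DMSO control.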

NIH/3T3 BTK C481S cells = test: Phosphor-BTK(Y223) assay, adherent cells; conditions: read-out: NIH/3T3 BTK-C481S pBTK
In short: as §1

[1] = Mus musculus, NIH3T3, phosphorylated BTK Y223, NIH/3T3 BTK WT cells
[2] = Mus musculus, NIH3T3, phosphorylated BTK Y223, NIH/3T3 BTK C481S cells

Compound	IC50 (Ramos cells with BTK WT; Homo sapiens, Ramos) [nM]	IC50 (Ramos cells with BTK WT) [nM]	IC50 (NIH/3T3 BTK WT cells; [1]) [nM]	IC50 (NIH/3T3 BTK C481S cells; [2]) [nM]	IC50 (Ramos cells with BTK WT; Homo sapiens) [nM]	IC50 (NIH/3T3 BTK WT cells; phosphorylated BTK Y223, NIH/3T3 BTK WT cells) [nM]	IC50 (NIH/3T3 BTK C481S cells; phosphorylated BTK Y223, NIH/3T3 BTK C481S cells) [nM]
COc1ccc(F)cc1C(=O)NCc1ccc(-c2ncc(-c3cc4cnccn4n3)c3[nH]nc(N)c23)cc1 [Example 78, N-(4-(3-amino-7-(pyrazolo[1,5-a]pyrazin-2-yl)-1H-pyrazolo[4,3-c]pyridin-4-yl)benzyl)-5-fluoro-2-methoxybenzamide]	≤ 5	–	≤ 5	≤ 5	–	–	–
COc1ccc(F)cc1C(=O)NCc1ccc(-c2ncc(-c3ccc(NC(=O)C4CC4)cn3)c3[nH]nc(N)c23)cc1 [Example 79, N-(4-(3-amino-7-(5-(cyclopropaneformamido)pyridin-2-yl)-1H-pyrazolo[4,3-c]pyridin-4-yl)benzyl)-5-fluoro-2-methoxybenzamide]	–	–	5 to 10	10 to 50	5 to 10	–	–
COc1ccc(F)cc1C(=O)NCc1ccc(-c2ncc(-c3cc(NC(=O)C4CC4)ccn3)c3[nH]nc(N)c23)cc1 [Example 80, N-(4-(3-amino-7-(4-(cyclopropaneformamido)pyridin-2-yl)-1H-pyrazolo[4,3-c]pyridin-4-yl)benzyl)-5-fluoro-2-methoxybenzamide]	–	–	5 to 10	5 to 10	≤ 5	–	–
COc1ccc(F)cc1C(=O)NCc1ccc(-c2ncc(-c3nc4ccccc4s3)c3[nH]nc(N)c23)cc1 [Example 99, N-(4-(3-amino-7-(benzo[d]thiazol-2-yl)-1H-pyrazolo[4,3-c]pyridin-4-yl)benzyl)-5-fluoro-2-methoxybenzamide]	≤ 5	–	≤ 5	5 to 10	–	–	–
CCN1CCc2nc(-c3cnc(-c4ccc(CNC(=O)c5cc(F)ccc5OC)cc4)c4c(N)n[nH]c34)sc2C1 [Example 101, N-(4-(3-amino-7-(5-ethyl-4,5,6,7-tetrahydrothiazolo[5,4-c]pyridin-2-yl)-1H-pyrazolo[4,3-c]pyridin-4-yl)benzyl)-5-fluoro-2-methoxybenzamide]	≤ 5	–	≤ 5	≤ 5	–	–	–
COc1ccc(F)cc1C(=O)NCc1ccc(-c2ncc(-c3ccc4c(n3)nc3n4CCOC3)c3[nH]nc(N)c23)cc1 [Example 102, N-(4-(3-amino-7-(6,7-dihydro-9H-pyrido[2',3':4,5]imidazo[2,1-c][1,4]oxazin-2-yl)-1H-pyrazolo[4,3-c]pyridin-4-yl)benzyl)-5-fluoro-2-methoxybenzamide]	10 to 50	–	10 to 50	10 to 50	–	–	–
COc1ccc(F)cc1C(=O)NCc1ccc(-c2ncc(-c3cccnc3)c3[nH]nc(N)c23)cc1 [Example 105, N-(4-(3-amino-7-(pyridin-3-yl)-1H-pyrazolo[4,3-c]pyridin-4-yl)benzyl)-5-fluoro-2-methoxybenzamide]	> 50	–	> 50	> 50	–	–	–
COc1ccc(F)cc1C(=O)NCc1ccc(-c2ncc(-c3ccncc3)c3[nH]nc(N)c23)cc1 [Example 106, N-(4-(3-amino-7-(pyridin-4-yl)-1H-pyrazolo[4,3-c]pyridin-4-yl)benzyl)-5-fluoro-2-methoxybenzamide]	> 50	–	> 50	> 50	–	–	–
COc1ccc(F)cc1C(=O)NCc1ccc(-c2nc(C3CCOCC3)cc3[nH]nc(N)c23)cc1 [Example 115, N-(4-(3-amino-6-(tetrahydro-2H-pyran-4-yl)-1H-pyrazolo[4,3-c]pyridin-4-yl)benzyl)-5-fluoro-2-methoxybenzamide]	≤ 5	–	≤ 5	5 to 10	–	–	–
N-(4-(3-amino-7-(1-(difluoromethyl)-1H-pyrazol-3-yl)-1H-pyrazolo[4,3-c]pyridin-4-yl)benzyl)-5-fluoro-2-methoxybenzamide [Example 29]	–	≤ 5	–	–	–	≤ 5	5 to 10

The next lines start with results.

IC50 (Ramos cells with BTK WT; Homo sapiens, Ramos) [nM]	IC50 (Ramos cells with BTK WT) [nM]	Compound	IC50 (NIH/3T3 BTK WT cells; [1]) [nM]	IC50 (NIH/3T3 BTK C481S cells; [2]) [nM]	IC50 (Ramos cells with BTK WT; Homo sapiens) [nM]	IC50 (NIH/3T3 BTK WT cells; phosphorylated BTK Y223, NIH/3T3 BTK WT cells) [nM]	IC50 (NIH/3T3 BTK C481S cells; phosphorylated BTK Y223, NIH/3T3 BTK C481S cells) [nM]
10 to 50	–	COc1ccc(F)cc1C(=O)NCc1ccc(-c2ncc(-c3ccc(F)cn3)c3[nH]nc(N)c23)c(F)c1 [Example 82, N-(4-(3-amino-7-(5-fluoropyridin-2-yl)-1H-pyrazolo[4,3-c]pyridin-4-yl)-3-fluorobenzyl)-5-fluoro-2-methoxybenzamide]	≤ 5	≤ 5	–	–	–
5 to 10	–	COc1ccc(F)cc1C(=O)NCc1ccc(-c2nc(C)c(-c3ncccn3)c3[nH]nc(N)c23)cc1 [Example 84, N-(4-(3-amino-6-methyl-7-(pyrimidin-2-yl)-1H-pyrazolo[4,3-c]pyridin-4-yl)benzyl)-5-fluoro-2-methoxybenzamide]	5 to 10	10 to 50	–	–	–
≤ 5	–	COc1ccc(F)cc1C(=O)NCc1ccc(-c2nc(C(F)F)c(-c3ncccn3)c3[nH]nc(N)c23)cc1 [Example 85, N-(4-(3-amino-6-(difluoromethyl)-7-(pyrimidin-2-yl)-1H-pyrazolo[4,3-c]pyridin-4-yl)benzyl)-5-fluoro-2-methoxybenzamide]	≤ 5	5 to 10	–	–	–
5 to 10	–	COc1ccc(F)cc1C(=O)NCc1ccc(-c2nc(C3CCSCC3)cc3[nH]nc(N)c23)cc1 [Example 91, N-(4-(3-amino-6-(tetrahydro-2H-thiopyran-4-yl)-1H-pyrazolo[4,3-c]pyridin-4-yl)benzyl)-5-fluoro-2-methoxybenzamide]	≤ 5	5 to 10	–	–	–
≤ 5	–	C=CC(=O)N1CCCC(c2cc3[nH]nc(N)c3c(-c3ccc(CNC(=O)c4cc(F)ccc4OC)cc3)n2)C1 (stereo not drawn) [Example 96, N-(4-(6-(1-acryloylpiperidin-3-yl)-3-amino-1H-pyrazolo[4,3-c]pyridin-4-yl)benzyl)-5-fluoro-2-methoxybenzamide]	10 to 50	> 50	–	–	–
≤ 5	–	COc1ccc(F)cc1C(=O)NCc1ccc(-c2ncc(-c3nccn4nccc34)c3[nH]nc(N)c23)cc1 [Example 98, N-(4-(3-amino-7-(pyrazolo[1,5-a]pyrazin-4-yl)-1H-pyrazolo[4,3-c]pyridin-4-yl)benzyl)-5-fluoro-2-methoxybenzamide]	≤ 5	≤ 5	–	–	–
≤ 5	–	COc1ccc(F)cc1C(=O)NCc1ccc(-c2ncc(-c3nc4cccnc4s3)c3[nH]nc(N)c23)cc1 [Example 100, N-(4-(3-amino-7-(thiazolo[5,4-b]pyridin-2-yl)-1H-pyrazolo[4,3-c]pyridin-4-yl)benzyl)-5-fluoro-2-methoxybenzamide]	≤ 5	5 to 10	–	–	–
10 to 50	–	COc1ccc(F)cc1C(=O)NCc1ccc(-c2ncc(-c3ccc4c(n3)nc3n4C(C)COC3)c3[nH]nc(N)c23)cc1 (stereo not drawn) [Example 103, N-(4-(3-amino-7-(6-methyl-6,7-dihydro-9H-pyrido[2',3':4,5]imidazo[2,1-c][1,4]oxazin-2-yl)-1H-pyrazolo[4,3-c]pyridin-4-yl)benzyl)-5-fluoro-2-methoxybenzamide]	5 to 10	10 to 50	–	–	–
≤ 5	–	COc1ccc(F)cc1C(=O)NCc1ccc(-c2nc([C@H]3CC[C@H](CO)CC3)cc3[nH]nc(N)c23)cc1 [Example 117, N-(4-(3-amino-6-((1r,4r)-4-(hydroxymethyl)cyclohexyl)-1H-pyrazolo[4,3-c]pyridin-4-yl)benzyl)-5-fluoro-2-methoxybenzamide]	10 to 50	10 to 50	–	–	–
